Measurements reported in patent US10240133B2, “ERK-derived peptides and uses thereof” (Yeda Research and Development Co. Ltd., priority 2013, dated 2019).

How the values were obtained:
[1] = Systemic toxicity in xenograft-bearing mice (body weight, organ histology); details: treated animals, end of experiment
Experimental: Female SCID mice (Harlan), 5-6 weeks of age, were inoculated s.c. into the flank region with 10^7 A2352 cells in 150 μl mixture of PBS with matrigel (2:1). Tumors were allowed to develop to the size of 5-6.5 mm in diameter (50˜110 mm^3 volume) and then the animals were randomly allocated to different treatment groups. The peptides (100 mM stock in DMSO), were diluted to the necessary concentration in PBS and boiled for 5 minutes. Then, DMSO, Scr or EPE peptides were administered by i.v. injection into the tail vein (150 μl/mouse, 3 times a week). Tumor dimensions were measured with a digital sliding caliper. Tumor volume was calculated using the formula: V=D1×D2×D3×π/6, where D1, D2, D3—represent the three mutually orthogonal growth diameters. To assess any signs of systemic toxicity, body weight was monitored, and recorded at the end of the experiment.
Tumor xenografts, lungs, livers, kidneys and hearts of animals from different treatment groups were removed and subjected for histological analysis by staining of 5 μm paraffin embedded tissue slides with H&E, and examination by light microscope. […] Briefly, paraffin embedded blocks of tumors after different treatments were cut at 4 μm thickness and stained with ERK Abs, followed by second antibodies conjugated to peroxidase and DAB staining. Representative fields of each specimen were photographed at ×20 and ×40 magnifications.

Elk1 = experiment: Western blotting of Elk1 phosphorylation; type: cell-based; details: varied among the cell lines; EPE vs scrambled after TPA
Experimental: (A) EPE peptide prevents ERK1/2-importin7 interaction. HeLa cells were serum starved (0.1%, 16 hours), pretreated with EPE peptide, scrambled peptide (10 μM, 2 hours) or DMSO, and then stimulated with TPA (250 nM, 15 min). ERK1 were precipitated with αgERK1 Ab; importin7 co-immunoprecipitated with ERK1 was detected by WB with αimportin7 Ab. […] T47D, HeLa, MDA-MB-231 and A2352 cells were serum starved (0.1%, 16 hours), pretreated with EPE peptide, scrambled peptide (10 μM, 2 hours) or DMSO control, and then stimulated with TPA (250 nM, indicated times). Cell extracts were subjected to Western blot analysis with the indicated Abs. (C) EPE peptide inhibits phosphorylation of c-Myc and Elk1 in B-Raf melanomas. A2158 and A2352 cells were treated with scrambled and EPE peptide for two hours and then stimulated with the indicated concentration of TPA for 30 min. […] (D) Quantification of some of the results in B and C. […]
(i) Preparation of cellular extracts for Western Blotting: Cells were rinsed twice with ice-cold PBS and scraped into Radio-immunoprecipitation assay buffer (RIPA; 137 mM NaCl, 20 mM Tris (pH 7.4), 10% glycerol, 1% Triton X-100, 0.5% deoxycholate, 0.1% SDS, 2 mM EDTA, 1 mM PMSF, and 20 μM leupeptin). The extracts were centrifuged (20,000×g, 15 min, 4° C.), and the supernatants were further analyzed by Western blotting. […]

HeLa and T47D cells = experiment: Proliferation assay (Methylene Blue), optimal administration conditions; type: cell-based; details: administered every 24 h in fresh medium
Experimental: FIGS. 9A-9B illustrate the dose response of the EPE peptides on melanoma cells proliferation. LOXIMVI (FIG. 9A) and A2352 (FIG. 9B) melanoma cells were treated with the indicated doses of the EPE or Scr peptides. Presented as percent of viable cells at 72 h/initial cell number.
(§1) All cells, except of MCF-10A, were seeded into 12-well cell plates in 1% FBS medium. MCF-10A cells were seeded in their complete medium diluted 5 fold. DMSO, Scr peptide, EPE peptide, or U0126 (final concentration of 10 μM each) were added to the appropriated wells four hours later. Every day medium was changed to fresh one containing the same agents. The number of viable cells was measured by Methylene Blue assay at 72 h after cell seeding. Shortly, cells were fixed with 4% Formaldehyde for 2 h at 23° C., washed once with 0.1M Borate Buffer pH 8.5 and stained with of 1% Methylene Blue in 0.1M Borate Buffer for 10 min. Color was extracted by adding 0.1 M HCl for 3 h at 23° C., and examined at 595 nm. For time course experiments, viable cells were measured at 0, 24, 48, 72 and 96 h after cell seeding. For dose response experiments we treaded the cells with 0.1, 1, 3, 10, or 30 μM of peptides for 72 h, as described above.

[2] = system: other melanomas, prostate and lung cancer-derived cells; experiment: Proliferation assay (Methylene Blue); type: cell-based; details: 72 h after peptide administration, 10 μM
Experimental: (§2) FIGS. 3A-3B illustrate that EPE peptide prevents proliferation of cancer but not normal cells. (A) Effect of the EPE peptide on the proliferation of various cell lines. Sixteen cancer and four “normal” immortalized cell lines were treated with either EPE or scrambled peptides as described above. Viable cells were assayed by Methylene Blue at 48 or 72 hours after cell seeding. The data from at least three independent experiments is presented as percent of the amount of viable cells/initial cell number, where initial cell number was considered as 100. (B) Comparison of the effects of the EPE-peptide and Raf inhibitor PLX4032 on cell viability. NHEM-Ad, LOXIMVI, A2352, Hela MDA-MB-231, and DU-145 cells were treated with EPE peptide, scrambled peptide, (10 μM), PLX4032 (1 μM), DMSO control, or no treatment at 1% FCS. The number of cells was detected as above. The graphs present the kinetic of cell growth at the indicated times. All experiments were repeated 3 times in triplicates.
as §1

[3] = system: immortalized, non-transformed cells; experiment: Proliferation assay (Methylene Blue); type: cell-based; details: 72 h after peptide administration, 10 μM
Experimental: as §2, §1

[4] = system: melanoma cells with oncogenic B-Raf (B-Raf melanoma); experiment: Proliferation assay (Methylene Blue); type: cell-based; details: 72 h after peptide administration, 10 μM
Experimental: as §2, §1

[5] = system: breast, prostate and cervical cancer-derived cells; experiment: Proliferation assay (Methylene Blue); type: cell-based; details: 72 h after peptide administration, 10 μM
Experimental: as §2, §1

[6] = system: PLX-4032 and U0126 resistant A2352 melanoma cells; experiment: Proliferation of inhibitor-resistant melanoma cells; type: cell-based; details: 10 μM, 72 h
Experimental: (A) A2352 melanoma cells resistant to either PLX4032 (B-Raf) or U0126 (MEK) inhibitors were treated with DMSO, EPE or Scr peptide (10 μM), U0126 (10 μM), PLX4032 (1 μM), Wortmannin (0.5 μM) or Taxol (25 μg/ml). Presented as percent of viable cells at 72 h/initial cell number. […] Methylene blue assay was performed to quantify viable cells. Experiments were done twice in triplicate. Data presented as fold change.
A2352 cells were supplemented with either PLX4032 (B-Raf inhibitor, 1 μM), or U0126 (MEK inhibitor, 10 μM) for 45 days. […]

[7] = system: non-transformed melanocytes (NHEM-Ad); experiment: Cell viability, EPE peptide compared with PLX4032; type: cell-based; details: EPE 10 μM, PLX4032 1 μM, 1% FCS
Experimental: as §2, §1

[8] = system: all other transformed cell lines examined (A2352, Hela, MDA-MB-231, DU-145); experiment: Cell viability, EPE peptide compared with PLX4032; type: cell-based; details: EPE 10 μM, PLX4032 1 μM, 1% FCS
Experimental: as §2, §1

[9] = system: N-Ras transformed melanoma cells LOXIMVI; experiment: Cell viability, EPE peptide compared with PLX4032; type: cell-based; details: EPE 10 μM, PLX4032 1 μM, 1% FCS
Experimental: as §2, §1

GQLNHILGILGEPEQED (Synthetic peptide (EPE)) [EPE peptide, NTS-derived peptide with phosphomimetic EPE motif]
change in weight, organ morphology or other toxicity-related effects [1]: None of the animal treated exhibited any significant change | inhibition of phosphorylation of Elk1 (Elk1): 20-45% | optimal administration conditions (maximal effect compared to Scr peptide) (HeLa and T47D cells): 10 µM | proliferation (cell number) [2]: small decrease in cell growth | proliferation (cell number) [3]: did not respond to the peptide at all | proliferation (cell number) [4]: profound reduction in cell number | proliferation (cell number) [5]: prevented cell growth, but did not reduce the number of initial cells | cell growth [6]: able to reduce cell growth | viability [7]: does not have any significant effect | effect on viability relative to PLX4032 [8]: at least as good, or even better, than that of PLX4032 | viability [9]: able to reduce the viability
